Data from the NIST ThermoML archive (doi:10.1021/je060107n).
± gives the expanded uncertainty stated by the source.

Experiment: mn = molality of the nth substance listed, in mol/kg
Conditions: 101 kPa, Liquid; for mass density: Pycnometric method; for viscosity: Capillary tube (Ostwald / Ubbelohde) method; for speed of sound: Linear variable-path acoustic interferometer

O=[N+]([O-])[O-].O=[N+]([O-])[O-].[Mg+2] [magnesium nitrate] + O
Conditions	mass density [kg/m3]	speed of sound [m/s]	viscosity [mPa·s]
306.45 K, m1 = 0.0145	995.89 ± 0.66	–	–
306.5 K, m1 = 0.896	1083.6 ± 0.7	–	–
306.5 K, m1 = 3.096	1266.4 ± 0.8	–	–
306.65 K, m1 = 0.5931	1054 ± 0.7	–	–
306.65 K, m1 = 3.501	1294.4 ± 0.9	–	–
306.7 K, m1 = 3.118	1267.2 ± 0.8	–	–
306.7 K, m1 = 3.757	1310.9 ± 0.9	–	–
306.7 K, m1 = 5.134	1397 ± 1	–	–
306.75 K, m1 = 4.728	1373.4 ± 1	–	–
306.8 K, m1 = 3.17	1276 ± 0.9	–	–
307.05 K, m1 = 0.6173	1056.6 ± 0.7	–	–
307.05 K, m1 = 4.883	1379.9 ± 1	–	–
307.25 K, m1 = 1.827	1167 ± 0.8	–	–
307.45 K, m1 = 4.039	1327.9 ± 1	–	–
307.6 K, m1 = 2.584	1228.1 ± 0.9	–	–
307.65 K, m1 = 4.97	1385.7 ± 1	–	–
307.7 K, m1 = 3.704	1307.2 ± 0.8	–	–
307.8 K, m1 = 2.793	1243.4 ± 0.8	–	–
307.9 K, m1 = 1.694	1154 ± 0.8	–	–
307.95 K, m1 = 0.2491	1020.1 ± 0.7	–	–
308.1 K, m1 = 4.403	1351 ± 0.9	–	–
308.15 K, m1 = 0.0145	–	1520.8 ± 1.9	0.7364 ± 0.0097
308.15 K, m1 = 0.0528	–	1522.6 ± 1.9	0.745 ± 0.0099
308.15 K, m1 = 0.2491	–	1536.2 ± 1.9	0.7877 ± 0.01
308.15 K, m1 = 0.3405	–	1539.2 ± 1.9	–
308.15 K, m1 = 0.5931	–	–	0.8757 ± 0.011
308.15 K, m1 = 0.6173	–	1559.2 ± 1.9	–
308.15 K, m1 = 0.896	–	1578.7 ± 1.9	–
308.15 K, m1 = 0.9898	–	1585.6 ± 1.9	1.005 ± 0.013
308.15 K, m1 = 1.262	–	1602.4 ± 1.9	1.11 ± 0.015
308.15 K, m1 = 1.525	–	1621.7 ± 1.9	–
308.15 K, m1 = 1.827	–	1644.8 ± 1.9	1.342 ± 0.017
308.15 K, m1 = 2.131	–	1666.7 ± 2	1.498 ± 0.019
308.15 K, m1 = 2.493	–	1688 ± 2	–
308.15 K, m1 = 2.584	–	–	1.777 ± 0.023
308.15 K, m1 = 2.793	–	1708.9 ± 2	–
308.15 K, m1 = 3.096	–	–	2.146 ± 0.028
308.15 K, m1 = 3.118	–	1728.7 ± 2	–
308.15 K, m1 = 3.17	–	1735.9 ± 2	–
308.15 K, m1 = 3.329	–	–	2.343 ± 0.031
308.15 K, m1 = 3.501	–	1752.2 ± 2	–
308.15 K, m1 = 3.704	–	–	2.692 ± 0.035
308.15 K, m1 = 3.757	–	1770.5 ± 2	–
308.15 K, m1 = 4.039	–	–	3.089 ± 0.04
308.15 K, m1 = 4.051	–	1781.1 ± 2	–
308.15 K, m1 = 4.285	–	1794.4 ± 2	–
308.15 K, m1 = 4.403	–	1800.6 ± 2.1	–
308.15 K, m1 = 4.728	–	–	4.262 ± 0.056
308.15 K, m1 = 4.883	–	1826.2 ± 2.1	–
308.15 K, m1 = 4.907	–	–	4.654 ± 0.061
308.15 K, m1 = 5.134	–	1838.4 ± 2.1	–
308.15 K, m1 = 5.282	–	–	5.506 ± 0.072
308.35 K, m1 = 0.9898	1091.9 ± 0.7	–	–
308.4 K, m1 = 1.525	1138.7 ± 0.8	–	–
308.45 K, m1 = 1.262	1116 ± 0.8	–	–
308.55 K, m1 = 0.3405	1028.5 ± 0.7	–	–
308.7 K, m1 = 5.282	1404.1 ± 1	–	–
308.75 K, m1 = 3.757	1309.6 ± 0.9	–	–
308.85 K, m1 = 3.096	1265 ± 0.8	–	–
308.85 K, m1 = 4.285	1343.6 ± 0.9	–	–
308.95 K, m1 = 3.118	1265.8 ± 0.8	–	–
309 K, m1 = 0.896	1082.4 ± 0.7	–	–
309.05 K, m1 = 4.728	1371.9 ± 1	–	–
309.25 K, m1 = 2.131	1191 ± 0.8	–	–
309.3 K, m1 = 2.493	1218.8 ± 0.9	–	–
309.35 K, m1 = 4.883	1378.4 ± 0.9	–	–
309.4 K, m1 = 4.051	1326.7 ± 0.9	–	–
309.5 K, m1 = 0.0145	994.82 ± 0.66	–	–
309.5 K, m1 = 0.5931	1052.8 ± 0.7	–	–
309.5 K, m1 = 0.6173	1055.5 ± 0.7	–	–
309.6 K, m1 = 0.0528	999.02 ± 0.66	–	–
309.65 K, m1 = 1.827	1165.8 ± 0.8	–	–
309.75 K, m1 = 4.97	1384.3 ± 1	–	–
309.9 K, m1 = 2.584	1226.7 ± 0.9	–	–
309.95 K, m1 = 3.704	1305.7 ± 0.9	–	–
310.1 K, m1 = 1.694	1152.8 ± 0.8	–	–
310.15 K, m1 = 4.403	1349.7 ± 0.9	–	–
310.7 K, m1 = 0.9898	1090.8 ± 0.7	–	–
310.8 K, m1 = 0.2491	1019 ± 0.7	–	–
310.9 K, m1 = 3.096	1263.8 ± 0.8	–	–
310.95 K, m1 = 1.262	1114.7 ± 0.8	–	–
311 K, m1 = 3.501	1291.7 ± 0.9	–	–
311 K, m1 = 3.757	1308.1 ± 0.9	–	–
311.05 K, m1 = 3.17	1273.3 ± 0.9	–	–
311.2 K, m1 = 3.118	1264.5 ± 0.8	–	–
311.25 K, m1 = 2.131	1189.9 ± 0.8	–	–
311.25 K, m1 = 4.728	1370.6 ± 0.9	–	–
311.35 K, m1 = 5.134	1394 ± 0.8	–	–
311.45 K, m1 = 4.883	1377.1 ± 1	–	–
311.55 K, m1 = 0.896	1081.3 ± 0.8	–	–
311.75 K, m1 = 1.827	1164.7 ± 1.1	–	–
311.9 K, m1 = 4.039	1325 ± 0.9	–	–
311.95 K, m1 = 5.282	1402.5 ± 0.9	–	–
312 K, m1 = 4.97	1382.9 ± 0.9	–	–
312.1 K, m1 = 0.6173	1054.3 ± 0.7	–	–
312.15 K, m1 = 1.694	1151.6 ± 0.8	–	–
312.15 K, m1 = 2.793	1240.8 ± 0.9	–	–
312.25 K, m1 = 0.0528	997.99 ± 0.67	–	–
312.4 K, m1 = 4.403	1348.2 ± 0.9	–	–
312.45 K, m1 = 0.0145	993.76 ± 0.67	–	–
312.95 K, m1 = 1.525	1136.3 ± 0.7	–	–
313.1 K, m1 = 1.262	1113.5 ± 0.8	–	–
313.15 K, m1 = 0.0145	–	1532.2 ± 1.9	0.6666 ± 0.0088
313.15 K, m1 = 0.0528	–	1531.9 ± 1.9	0.6778 ± 0.0089
313.15 K, m1 = 0.2491	–	1544.5 ± 1.9	0.7155 ± 0.0094
313.15 K, m1 = 0.3405	–	1546 ± 1.9	–
313.15 K, m1 = 0.5931	–	–	0.7972 ± 0.01
313.15 K, m1 = 0.6173	–	1566.4 ± 1.9	–
313.15 K, m1 = 0.896	–	1584.7 ± 1.9	–
313.15 K, m1 = 0.9898	–	1591.3 ± 1.9	0.913 ± 0.012
313.15 K, m1 = 1.262	–	1607.1 ± 1.9	1.008 ± 0.013
313.15 K, m1 = 1.525	–	1625.9 ± 1.9	–
313.15 K, m1 = 1.827	–	1647.8 ± 1.9	1.305 ± 0.017
313.15 K, m1 = 2.131	–	1667.8 ± 2	1.364 ± 0.018
313.15 K, m1 = 2.493	–	1688.9 ± 2	–
313.15 K, m1 = 2.584	–	–	1.616 ± 0.021
313.15 K, m1 = 2.793	–	1709 ± 2	–
313.15 K, m1 = 3.096	1262.3 ± 0.8	–	1.947 ± 0.025
313.15 K, m1 = 3.118	–	1728.1 ± 2	–
313.15 K, m1 = 3.17	–	1734.7 ± 2	–
313.15 K, m1 = 3.329	–	–	2.128 ± 0.028
313.15 K, m1 = 3.501	–	1751.2 ± 2	–
313.15 K, m1 = 3.704	–	–	2.435 ± 0.032
313.15 K, m1 = 3.757	–	1767.8 ± 2	–
313.15 K, m1 = 4.039	–	–	2.798 ± 0.036
313.15 K, m1 = 4.051	–	1778.4 ± 2	–
313.15 K, m1 = 4.285	–	1791.3 ± 2	–
313.15 K, m1 = 4.403	–	1797.9 ± 2.1	–
313.15 K, m1 = 4.728	–	–	3.817 ± 0.05
313.15 K, m1 = 4.883	–	1823.1 ± 2.1	–
313.15 K, m1 = 4.907	–	–	4.176 ± 0.055
313.15 K, m1 = 5.134	–	1834.3 ± 2.1	–
313.15 K, m1 = 5.282	–	–	4.924 ± 0.065
313.25 K, m1 = 3.118	1263.3 ± 0.8	–	–
313.25 K, m1 = 4.285	1340.7 ± 1.1	–	–
313.45 K, m1 = 0.2491	1017.9 ± 0.7	–	–
313.5 K, m1 = 2.493	1216.4 ± 0.9	–	–
313.6 K, m1 = 2.131	1188.5 ± 0.8	–	–
313.7 K, m1 = 0.3405	1026.4 ± 0.7	–	–
313.7 K, m1 = 4.883	1375.5 ± 0.9	–	–
313.8 K, m1 = 0.896	1080.2 ± 0.8	–	–
313.8 K, m1 = 4.051	1324 ± 0.9	–	–
314.1 K, m1 = 2.793	1239.5 ± 0.9	–	–
314.15 K, m1 = 3.704	1303 ± 0.9	–	–
314.15 K, m1 = 5.282	1401.1 ± 1	–	–
314.25 K, m1 = 2.584	1224.2 ± 0.9	–	–
314.45 K, m1 = 0.5931	1050.6 ± 0.7	–	–
314.45 K, m1 = 0.6173	1053.3 ± 0.7	–	–
314.5 K, m1 = 1.694	1150.4 ± 0.9	–	–
314.5 K, m1 = 4.403	1346.8 ± 1	–	–
